Measurements reported in US8937090B2, “Parakeratosis inhibitor, pore-shrinking agent and external composition for skin” (Shiseido Company, Ltd., priority 2005, dated 2015).

Key:
[1] = system: cheeks of healthy human males; test: Human pore-shrinking effect (replica of cheek pores, three-dimensional laser scanning microscope); format: in vivo; conditions: for pore-shrinking effect: in words, summary of Table 2; for Replica assessment value (average of n = 5): twice a day for one month, pore size rating (1-13) after minus before application, control 0.3
Method: An experiment was conducted whereby a sample was applied twice a day for one month to the cheeks of healthy human males in groups of 5 men each. Aqueous solutions (containing 15 mass % of ethanol) of 3 mass % of the β-alanine derivative or a salt thereof were prepared mainly as the evaluation sample. The pH was regulated by hydrochloric acid or sodium hydroxide so as to be 7.0 to 7.5. When the sample solubility was low, the solution was prepared accordingly. The control was an aqueous 15% ethanol solution. The sample aqueous solution and the control aqueous solution were applied to one half of the face at a time.
A replica was collected before and after continuous application, and changes in the shape of the pores at the same site were observed using a three-dimensional laser scanning microscope. The size of the pores was visually evaluated in the 13 steps of 1 through 13 (with the pores becoming larger as the numbers became larger), the difference in the ratings before and after application (after application—before application) was calculated, and the efficacy of each sample was studied using this difference as the replica assessment value.

hairless mice (HR-1) = test: Inhibiting effect on rough skin induced by oleic acid application (transepidermal water loss); format: in vivo, mouse; design: ΔTEWL value: unit not given here; conditions: for rough skin preventing/ameliorating effect (ΔTEWL value versus control aqueous solution): in words, summary of Table 3; for ΔTEWL value: average of four mice, 3 days after 10 mass % oleic acid, control 12.0, increase = rough skin worse
Method: In order to investigate the inhibiting effect of β-alanine derivatives and salts thereof on rough skin induced by oleic acid application, the transepidermal water loss (TEWL value) before and after application was measured, the difference was compared with the control (control aqueous solution), and the effect was determined. […] The TEWL was determined using the TM210 TEWA Meter (Courage+Khazaka Electronic GmBH).
100 μL of 10 mass % oleic acid (solvent: ethanol) was applied to the back of hairless mice (HR-1, four mice per group). Then a sample solution (β-alanine derivatives) was applied 100 μL at a time. This procedure was continued for three days. On the following day, the TEWL value of the back was determined and the values of the four animals were averaged.

panel of 20 women = test: Sensory irritation tests; format: in vivo, human; conditions: for sensory irritation: in words, summary of Table 4; for Evaluation (sensory irritation, class of average rating): 1 mL to cheek, rated for ten minutes
Method: 1 mL of a control aqueous solution and the sample aqueous solution prepared in Example 1 were applied using a cotton swab to the left or right cheek, respectively, of each member of a panel of 20 women, and the irritating sensation was evaluated every 30 seconds for ten minutes beginning immediately after application, whereby a final evaluation was reported. The evaluation of the irritating sensation was made based on the following four levels of rating criteria, and the average rating was calculated, whereby the average was classified by the following criteria.
3: Continuation is not possible because of extremely strong irritation, such as tingling sensation, burning sensation, stinging sensation, itching, and the like.
2: Intolerable because of strong irritation, such as tingling sensation, burning sensation, stinging sensation, itching, and the like.
1: Tolerable, but with slight irritation such as tingling sensation, burning sensation, stinging sensation, itching, and the like.
0: Not particularly irritating.
(Evaluation Criteria) • A: average rating of less than 0.2 • B: average rating of from 0.2 to less than 1.0 • C: average rating of from 1.0 to less than 2.0 • D: average rating of 2.0 or greater

hairless mouse (HR-1) = test: Parakeratosis-inhibiting effect test (oleic acid applied to back of hairless mouse; visual rough skin evaluation and parakeratosis value); format: in vivo; conditions: for parakeratosis-inhibiting effect: in words, summary of Table 1; for Visual evaluation (average of four animals): rough skin score, control = 2.0, no skin roughness = 0.0, 3 days application after 10 mass % oleic acid; for Parakeratosis value (average of four animals): scale 1.0 to 3.0, higher = parakeratosis advanced, control 2.0
Method: Aqueous solutions (containing 30 mass % of ethanol) of 3 mass % of a β-alanine derivative or salt thereof were prepared mainly as the evaluation sample. The pH was regulated by hydrochloric acid or sodium hydroxide so as to be 7.0 to 7.5. When sample solubility was low, the solution was prepared accordingly.
100 μL of 10 mass % oleic acid solution (solvent: ethanol) were applied to the back of a hairless mouse (HR-1; Hoshino Laboratory Animals). Then the sample solution (β-alanine derivative, and the like) was applied 100 μL at a time. This procedure was continued for three days. […] At the same time, the stratum corneum at the back of the hairless mouse was peeled off with tape, the nuclei were stained by hematoxylin, and the degree of parakeratosis was observed and evaluated by a parakeratosis value within a range of 1.0 to 3.0 (in 0.25 increments).

For `O=C(O)CCNC1CCCCC1` [N-cyclohexyl-β-alanine], the pore-shrinking effect [1] was “effect was seen”, the “Replica assessment value (average of n = 5)” value (shortened to “Replica assessment value”) ([1]; sample 3 mass %) was −0.9 and the “rough skin preventing/ameliorating effect (ΔTEWL value versus control aqueous solution)” value (hairless mice (HR-1)) was “effect was seen”. The ΔTEWL value (hairless mice (HR-1); sample 3 mass %) was 9.0, the sensory irritation (panel of 20 women) was “no problem of sensory irritation” and the parakeratosis-inhibiting effect (hairless mouse (HR-1)) was “reduced the parakeratosis value”. For the same compound, the “Visual evaluation (average of four animals)” value (“Visual evaluation” below) (hairless mouse (HR-1); sample 3 mass %) was 1.1 and the “Parakeratosis value (average of four animals)” value (“Parakeratosis value” below) (hairless mouse (HR-1); sample 3 mass %) was 1.1.
For `O=C(O)CCNC(=O)C1CCCCC1` [N-cyclohexylcarbonyl-β-alanine], the pore-shrinking effect [1] was “effect was seen”, the “Replica assessment value” value ([1]; sample 3 mass %) was −0.6 and the “rough skin preventing/ameliorating effect (ΔTEWL value versus control aqueous solution)” value (hairless mice (HR-1)) was “effect was seen”. The ΔTEWL value (hairless mice (HR-1); sample 3 mass %) was 8.0, the sensory irritation (panel of 20 women) was “no problem of sensory irritation” and the “Evaluation (sensory irritation, class of average rating)” value (panel of 20 women; sample 3 mass %) was “A (average rating of less than 0.2)”. The parakeratosis-inhibiting effect (hairless mouse (HR-1)) was “reduced the parakeratosis value”, the “Visual evaluation” value (hairless mouse (HR-1); sample 3 mass %) was 1.1 and the “Parakeratosis value” value (hairless mouse (HR-1); sample 3 mass %) was 1.2.
For `O=C(O)CCNCC1CCCCC1` [N-cyclohexylmethyl-β-alanine], the pore-shrinking effect [1] was “effect was seen”, the “Replica assessment value” value ([1]; sample 3 mass %) was −0.8 and the “rough skin preventing/ameliorating effect (ΔTEWL value versus control aqueous solution)” value (hairless mice (HR-1)) was “effect was seen”. The ΔTEWL value (hairless mice (HR-1); sample 3 mass %) was 8.9, the sensory irritation (panel of 20 women) was “no problem of sensory irritation” and the “Evaluation (sensory irritation, class of average rating)” value (panel of 20 women; sample 3 mass %) was “A (average rating of less than 0.2)”. The parakeratosis-inhibiting effect (hairless mouse (HR-1)) was “reduced the parakeratosis value”, the “Visual evaluation” value (hairless mouse (HR-1); sample 3 mass %) was 1.1 and the “Parakeratosis value” value (hairless mouse (HR-1); sample 3 mass %) was 1.1.
`CNCCC(=O)O` [N-methyl-β-alanine] was tested, and the pore-shrinking effect [1] was “effect was seen”, the “Replica assessment value” value ([1]; sample 3 mass %) was −1.0 and the “rough skin preventing/ameliorating effect (ΔTEWL value versus control aqueous solution)” value (hairless mice (HR-1)) was “effect was seen”. The ΔTEWL value (hairless mice (HR-1); sample 3 mass %) was 6.8, the sensory irritation (panel of 20 women) was “no problem of sensory irritation” and the “Evaluation (sensory irritation, class of average rating)” value (panel of 20 women; sample 3 mass %) was “A (average rating of less than 0.2)”. For the same compound, the parakeratosis-inhibiting effect (hairless mouse (HR-1)) was “reduced the parakeratosis value”, the “Visual evaluation” value (hairless mouse (HR-1); sample 3 mass %) was 1.1 and the “Parakeratosis value” value (hairless mouse (HR-1); sample 3 mass %) was 1.2.
`O=C(O)CCNC(=O)c1cccnc1` [N-nicotinoyl-β-alanine] was tested, and the pore-shrinking effect [1] was “effect was seen”, the “Replica assessment value” value ([1]; sample 1.0 mass %) was −0.8 and the “rough skin preventing/ameliorating effect (ΔTEWL value versus control aqueous solution)” value (hairless mice (HR-1)) was “effect was seen”. The ΔTEWL value (hairless mice (HR-1); sample 1 mass %) was 6.0, the sensory irritation (panel of 20 women) was “no problem of sensory irritation” and the “Evaluation (sensory irritation, class of average rating)” value (panel of 20 women; sample 1 mass %) was “A (average rating of less than 0.2)”. For the same compound, the parakeratosis-inhibiting effect (hairless mouse (HR-1)) was “reduced the parakeratosis value”, the “Visual evaluation” value (hairless mouse (HR-1); sample 1 mass %) was 1.1 and the “Parakeratosis value” value (hairless mouse (HR-1); sample 1 mass %) was 1.2.
`Cl.NCCC(N)=O` [β-alanine amide hydrochloride salt] was tested, and the pore-shrinking effect [1] was “effect was seen”, the “Replica assessment value” value ([1]; sample 3 mass %) was −0.3 and the “rough skin preventing/ameliorating effect (ΔTEWL value versus control aqueous solution)” value (hairless mice (HR-1)) was “effect was seen”. The ΔTEWL value (hairless mice (HR-1); sample 3 mass %) was 8.9, the sensory irritation (panel of 20 women) was “no problem of sensory irritation” and the “Evaluation (sensory irritation, class of average rating)” value (panel of 20 women; sample 3 mass %) was “A (average rating of less than 0.2)”. For the same compound, the parakeratosis-inhibiting effect (hairless mouse (HR-1)) was “reduced the parakeratosis value”, the “Visual evaluation” value (hairless mouse (HR-1); sample 3 mass %) was 1.3 and the “Parakeratosis value” value (hairless mouse (HR-1); sample 3 mass %) was 1.3.
